Measured values from PubChem BioAssay (NCI).
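Grown in 96-well plates, cells were treated for 48 hours with each compound at five concentrations. Insufficient inhibition: endpoint recorded as highest concentration tested. GI50 is the concentration that inhibits growth by half. Definition used: TGI = concentration required for complete inhibition of growth.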

Assays:
Experiment in all cases: inhibition of tumour cell growth, NCI panel, 48 h
K-562 leukemia = system: K-562 leukemia
IGROV1 ovarian = system: IGROV1 ovarian
NCI/ADR-RES ovarian = system: NCI/ADR-RES ovarian
HCT-116 colon = system: HCT-116 colon
LOX IMVI melanoma = system: LOX IMVI melanoma
SR leukemia = system: SR leukemia
OVCAR-5 ovarian = system: OVCAR-5 ovarian
EKVX NSCLC = system: EKVX NSCLC
SK-MEL-2 melanoma = system: SK-MEL-2 melanoma
SK-MEL-28 melanoma = system: SK-MEL-28 melanoma

COc1cc2nc(-c3ccc(Cl)cc3)cc(OCCCN3CCOCC3)c2cc1OC
GI50 (K-562 leukemia): 2.71 µM
TGI (K-562 leukemia): > 100 µM
GI50 (IGROV1 ovarian): 0.99 µM
TGI (IGROV1 ovarian): > 100 µM
GI50 (NCI/ADR-RES ovarian): 1.15 µM
TGI (NCI/ADR-RES ovarian): > 100 µM
GI50 (HCT-116 colon): 1.59 µM
TGI (HCT-116 colon): > 100 µM
GI50 (LOX IMVI melanoma): 0.217 µM
TGI (LOX IMVI melanoma): 0.593 µM
GI50 (SR leukemia): 0.414 µM
TGI (SR leukemia): > 100 µM
GI50 (OVCAR-5 ovarian): 1.58 µM
TGI (OVCAR-5 ovarian): > 100 µM
GI50 (EKVX NSCLC): 1.73 µM
TGI (EKVX NSCLC): > 100 µM

NCCN1CCCCCc2ccccc21
TGI (K-562 leukemia): > 10 µM
TGI (IGROV1 ovarian): > 10 µM
TGI (NCI/ADR-RES ovarian): > 10 µM
TGI (SK-MEL-2 melanoma): > 10 µM
TGI (HCT-116 colon): > 10 µM
TGI (LOX IMVI melanoma): > 10 µM
TGI (SR leukemia): > 10 µM
TGI (SK-MEL-28 melanoma): > 10 µM
TGI (EKVX NSCLC): > 10 µM

COc1ccc(CNc2cnc3ccc(N)cc3n2)cc1
TGI (K-562 leukemia): > 100 µM
TGI (SK-MEL-2 melanoma): > 100 µM
TGI (HCT-116 colon): 11.7 µM
TGI (LOX IMVI melanoma): > 100 µM
TGI (SK-MEL-28 melanoma): > 100 µM
TGI (OVCAR-5 ovarian): > 100 µM
TGI (EKVX NSCLC): > 100 µM

C[n+]1cc2cc(O)c(O)cc2c2ccc3cc(O)c(O)cc3c21
TGI (K-562 leukemia): > 37.4 µM
TGI (IGROV1 ovarian): 4.75 µM
TGI (NCI/ADR-RES ovarian): 6.67 µM
TGI (SK-MEL-2 melanoma): 12 µM
TGI (HCT-116 colon): 4.21 µM
TGI (LOX IMVI melanoma): 18.3 µM
TGI (SR leukemia): 9.53 µM
TGI (SK-MEL-28 melanoma): > 100 µM
TGI (OVCAR-5 ovarian): > 100 µM
TGI (EKVX NSCLC): > 100 µM

Cc1c(N2CCOCC2)nc2ccc(Cl)cc2c1-c1ccccc1
TGI (K-562 leukemia): > 100 µM
TGI (IGROV1 ovarian): > 100 µM
TGI (SK-MEL-2 melanoma): > 100 µM
TGI (HCT-116 colon): > 100 µM
TGI (LOX IMVI melanoma): > 100 µM
TGI (SR leukemia): > 100 µM
TGI (SK-MEL-28 melanoma): > 100 µM
TGI (EKVX NSCLC): > 100 µM

CCOC1C=CC(=O)C(CO)O1 (configuration not stated)
TGI (K-562 leukemia): 26 µM
TGI (IGROV1 ovarian): 27.6 µM
TGI (NCI/ADR-RES ovarian): 33.2 µM
TGI (SK-MEL-2 melanoma): 37.1 µM
TGI (HCT-116 colon): 17.4 µM
TGI (LOX IMVI melanoma): 17.8 µM
TGI (SR leukemia): 6.63 µM
TGI (SK-MEL-28 melanoma): 33.3 µM
TGI (OVCAR-5 ovarian): 35.2 µM
TGI (EKVX NSCLC): 33.3 µM

CC(C)NC(=O)OCc1c(COC(=O)NC(C)C)n(C)c2c1ccc1sccc12
TGI (K-562 leukemia): > 52.2 µM
TGI (IGROV1 ovarian): 26.1 µM
TGI (NCI/ADR-RES ovarian): > 55.7 µM
TGI (SK-MEL-2 melanoma): 36.2 µM
TGI (HCT-116 colon): 39 µM
TGI (LOX IMVI melanoma): > 53.1 µM
TGI (SR leukemia): > 64.6 µM
TGI (SK-MEL-28 melanoma): 57.3 µM
TGI (OVCAR-5 ovarian): > 100 µM
TGI (EKVX NSCLC): 34.1 µM

c1ccc2c(c1)SCCCS2
TGI (K-562 leukemia): > 100 µM
TGI (IGROV1 ovarian): > 100 µM
TGI (NCI/ADR-RES ovarian): > 100 µM
TGI (HCT-116 colon): > 100 µM
TGI (LOX IMVI melanoma): > 100 µM
TGI (SR leukemia): > 100 µM
TGI (SK-MEL-28 melanoma): > 100 µM
TGI (OVCAR-5 ovarian): > 100 µM
TGI (EKVX NSCLC): > 100 µM

Cc1nc2ccc(Cl)cc2c(-n2ccnc2)c1CCn1ccnc1
TGI (K-562 leukemia): 89.3 µM
TGI (IGROV1 ovarian): > 100 µM
TGI (NCI/ADR-RES ovarian): 6.03 µM
TGI (SK-MEL-2 melanoma): 44.7 µM
TGI (HCT-116 colon): > 100 µM
TGI (LOX IMVI melanoma): > 100 µM
TGI (SR leukemia): 20.5 µM
TGI (SK-MEL-28 melanoma): 92.8 µM
TGI (OVCAR-5 ovarian): > 100 µM

COC(=O)/C=C(/C=C1/C(C#N)=C(N)N(c2ccc(Cl)cc2)C1(C)/C(=C\C(=O)OC)C(=O)OC)C(=O)OC (configuration not stated)
TGI (K-562 leukemia): > 100 µM
TGI (IGROV1 ovarian): 60.2 µM
TGI (NCI/ADR-RES ovarian): 36.9 µM
TGI (SK-MEL-2 melanoma): 72.2 µM
TGI (HCT-116 colon): 31.2 µM
TGI (LOX IMVI melanoma): 32.4 µM
TGI (SR leukemia): > 100 µM
TGI (SK-MEL-28 melanoma): 36.2 µM
TGI (OVCAR-5 ovarian): 48.3 µM
TGI (EKVX NSCLC): > 100 µM

O=[N+]([O-])c1ccc(C[P+]2(c3ccccc3)CCCCC2)cc1
TGI (K-562 leukemia): > 100 µM
TGI (IGROV1 ovarian): > 100 µM
TGI (SK-MEL-2 melanoma): > 100 µM
TGI (HCT-116 colon): > 100 µM
TGI (LOX IMVI melanoma): > 100 µM
TGI (SR leukemia): > 100 µM
TGI (SK-MEL-28 melanoma): > 100 µM
TGI (OVCAR-5 ovarian): > 100 µM
TGI (EKVX NSCLC): > 100 µM
